From US20240409934A1, “FOXO1-TARGETED THERAPY FOR THE TREATMENT OF CANCER” (BOARD OF REGENTS, THE UNIVERSITY OF TEXAS SYSTEM, priority 2021, published 2024)

Tests used:
LN229 [1] = assay: Western blot for cleaved caspase 3; assay type: cell-based
Description: (§1) Total protein was obtained from indicated cells by rinsing cells with 1×PBS (phosphate buffered saline) followed by directed lysis in 2× sample buffer (125 mM Tris-HCL at pH 6.8, 2% sodium dodecyl sulfate (SDS), 10% 2-mercaptoethanol, 20% glycerol, 0.05% bromophenol blue, 8 M urea); 2× sample buffer was added to each well and cells scraped with a cell scraper. The lysate was collected from each well, placed into a 1.5 mL microcentrifuge tube and heated for 10 minutes at 95° C. in a dry-bath heat block. Protein lysates were separated by sodium dodecyl sulfate-polyacrylamide gel electrophoresis (SDS-PAGE) at 100V for 1 hour. […] Data was analyzed with NIH Image J. Antibodies were obtained from Cell Signaling Technologies (Danvers, MA): Cleaved Caspase 3 antibody (cat: 94530). […]

BT549 [2] = assay: Western blot for cleaved caspase 3; assay type: cell-based
Description: as §1

LN229 [3] = assay: Colony formation assay (crystal violet); assay type: cell-based; details: treated five days
Description: (§2) Cell culture and drug treatments. Cell lines were obtained from ATCC (American Type Culture Collection, Manassas, VA) and grown under standard conditions (5% CO2, 10% FBS (fetal bovine serum), with 5% antifungal/antibacterial). Cell lines were tested for Mycoplasma using the MycoAlert Mycoplasma Detection Kit (Lonza, Basel Switzerland, cat: LT07-218); all experiments were done with mycoplasma negative cells. U87MG cells were propagated in MEM (Minimal Essential Medium). BT549 and DBTRG cells were propagated in RPMI (Roswell Park Memorial Institute 1640 Medium). LN18, U118MG, A172 and LN229 cells were propagated in DMEM (Dulbecco's Modified Eagle Medium). Neurosphere/cancer stem cell cultures for U87MG and BT549 cell lines were plated with 40,000 cells per mL in 3D Tumorsphere Medium XF (Sigma cat: C-28070, Burlington, MA). BT549 cancer stem cell cultures were supplemented with 1XB27 XenoFree CTS (Gibco/Thermo Fisher Waltham, MA, USA). AS1842856 was purchased from Calbiochem (Danvers, MA) and utilized at 200 nM, 500 nM and 1 μM final concentrations as indicated. AS1708727 was purchased from MedChem Express (Monmouth Junction, NJ) and was used at 0.5 μM, 1.0 µM and 2.0 μM concentrations. 5-aza-2′-deoxycytidine (5-AZA) was purchased from Millipore/Sigma (Burlington, MA) and utilized at a final concentration of 3 μM. Cells were plated at a density of 2,700 cells per mL and were treated five days with indicated drug. Treatments were investigated in triplicate (in numerous independent experiments) and stained with crystal violet. Plates were aspirated of media then each well was washed with 1.0 mL of 1x phosphate buffered saline (PBS) once before being stained with 1.0 mL of crystal violet stain (0.5% crystal violet in buffered formalin) and incubated for 15 minutes. The stain was aspirated, and wells were washed 3 times with 0.5 mL of 1x PBS. After collections were completed, crystal violet-stained plates were solubilized using 0.5 mL on each well of 10% acetic acid and placed on shaker for 1 hour. Solubilized samples were transferred to 96 well plates and quantified on a spectrophotometer at 590 nm. Quantified plates were analyzed with a Tukey test. Error bars were added using the standard deviation. Cells were plated at 2,700 cells per mL and were treated five days with the indicated drug. Treatments were investigated in triplicate (in numerous independent experiments) and stained with crystal violet. Plates were aspirated of media, then each well was washed with 1.0 mL of 1× phosphate-buffered saline (PBS) once before being stained with 1.0 mL of crystal violet stain (0.5% crystal violet in buffered formalin) and incubated for 15 minutes. The stain was aspirated, and cells were washed three times with 0.5 mL of 1×PBS. After collections were completed, crystal violet-stained plates were solubilized using 0.5 mL on each well of 10% acetic acid and placed on a shaker for 1 hour. Solubilized samples were transferred to 96 well plates and quantified on a spectrophotometer at 590 nm using iMark Microplate Absorbance Reader (Bio-Rad, Hercules, CA). Quantified plates were analyzed with a Tukey Test. Error bars were added using the standard deviation.

BT549 [4] = assay: Colony formation assay (crystal violet); assay type: cell-based; details: treated five days
Description: as §2

SW480 = assay: Colony formation assay (crystal violet); assay type: cell-based; details: treated five days
Description: [The procedure below names another cell line; the source lists this cell line under the same test.] as §2

U87MG cells = assay: Colony formation assay (crystal violet); assay type: cell-based
Description: as §2

DBTRG = assay: Colony formation assay (crystal violet); assay type: cell-based; details: treated five days
Description: as §2

A172 = assay: Colony formation assay (crystal violet); assay type: cell-based; details: treated five days
Description: as §2

LN18 = assay: Colony formation assay (crystal violet); assay type: cell-based; details: treated five days
Description: as §2

FOXO1 = FOXO1 (Homo sapiens, UniProt Q12778); details: cited from earlier work
Chain of FOXO1 (Q12778 whole entry, species assumed): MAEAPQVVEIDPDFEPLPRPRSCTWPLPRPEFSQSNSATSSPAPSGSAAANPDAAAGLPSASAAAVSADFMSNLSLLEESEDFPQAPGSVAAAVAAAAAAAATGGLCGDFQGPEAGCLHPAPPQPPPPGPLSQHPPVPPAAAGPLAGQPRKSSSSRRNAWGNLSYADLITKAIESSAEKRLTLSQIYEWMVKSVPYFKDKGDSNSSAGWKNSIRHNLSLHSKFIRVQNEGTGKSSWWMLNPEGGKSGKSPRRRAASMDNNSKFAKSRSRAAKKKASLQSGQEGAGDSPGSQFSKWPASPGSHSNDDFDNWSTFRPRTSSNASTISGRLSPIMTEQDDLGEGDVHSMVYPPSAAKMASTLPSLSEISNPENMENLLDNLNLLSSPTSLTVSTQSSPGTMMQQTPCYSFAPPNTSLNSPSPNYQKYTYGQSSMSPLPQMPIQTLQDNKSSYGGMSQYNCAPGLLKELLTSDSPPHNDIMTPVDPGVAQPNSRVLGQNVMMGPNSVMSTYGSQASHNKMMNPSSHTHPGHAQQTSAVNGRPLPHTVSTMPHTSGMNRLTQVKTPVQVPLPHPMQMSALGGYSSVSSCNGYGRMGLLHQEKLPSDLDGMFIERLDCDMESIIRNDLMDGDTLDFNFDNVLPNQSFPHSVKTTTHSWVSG

CCn1cc(C(=O)O)c(=O)c2c(N)c(F)c(NC3CCCCC3)cc21 [AS1842856, 5-Amino-7-(cyclohexylamino)-1-ethyl-6-fluoro-4-oxo-1,4-dihydroquinoline-3-carboxylic acid]
caspase 3 cleavage (LN229 [1]): positive for caspase 3 cleavage
caspase 3 cleavage (BT549 [2]): positive for caspase 3 cleavage
colony formation (LN229 [3]): fewer cells with 200 nM drug treatment with further reductions using 500 nM and 1 μM drug
colony formation (BT549 [4]): fewer cells with 200 nM drug treatment with further reductions using 500 nM and 1 μM drug
colony formation (SW480): Significantly reduced colony formation
colony number (U87MG cells): colony number was not significantly impacted
colony formation (DBTRG): fewer cells with 200 nM drug treatment with further reductions using 500 nM and 1 μM drug
colony formation (A172): fewer cells with 200 nM drug treatment with further reductions using 500 nM and 1 μM drug
colony formation (LN18): fewer cells with 200 nM drug treatment with further reductions using 500 nM and 1 μM drug
FOXO1 DNA binding and transactivation (FOXO1): reduces DNA binding and transactivation
